Converted amounts (≈) assume the structure as drawn. Read-outs that look alike come from different tables or passages of the source.
How the values were obtained:
[1] = tested on: S. aureus; experiment: Minimum inhibitory concentration, broth microdilution (CLSI); type: cell-based, Staphylococcus aureus
Experimental: (§1) The antimicrobial activity of the compounds was evaluated by a broth microdilution assay using the procedure described by CLSI. Briefly, bacteria were grown to mid-log phase in Muller Hinton broth (MHB) with shaking at 120 rpm and incubated at 37 °C for 12–16 h. Following incubation, bacteria were washed three times in PBS pH 7.4 at 3500 g for 10 min. After washing, bacteria were diluted with fresh MHB. The turbidity of the bacterial suspensions was adjusted so that OD660nm was 0.1, which gave 1 × 10^8 CFU/mL, and then further diluted to achieve 5 × 10^5 CFU/mL as a final bacterial concentration. Each compound was diluted (250–3.9 µM) through two-fold dilution. Wells in microtiter plates were loaded with 100 µL of inoculum containing 5 × 10^5 CFU/mL bacteria. Wells without any compound and containing only bacteria were used as negative controls (i.e., no inhibition of growth). Wells with media only were set as blank. The microtiter plate was wrapped with paraffin to prevent evaporation and incubated with shaking at 120 rpm and 37 °C for 18–24 h. After incubation, spectrophotometric readings were taken. The well without any bacterial growth and showing zero spectrophotometric reading was regarded as the MIC of the compounds.

[2] = tested on: E. coli; experiment: as above; type: cell-based, Escherichia coli
Experimental: as §1

[3] = tested on: MRC-5 human fibroblasts; experiment: Toxicity assay, Alamar Blue; type: cell-based; conditions: for IC50: MRC5, MRC-5 human fibroblasts, 72 h drug incubation, Alamar Blue
Experimental: Normal human lung fibroblasts MRC-5 were cultured in minimal essential medium (MEM, Invitrogen) supplemented with 10% foetal calf serum (FCS), 1% L-glutamine–penicillin–streptomycin, 2% sodium bicarbonate, 1% non-essential amino acids (NEAA), and 1% sodium pyruvate. The cell line was maintained at 37 °C in 5% CO2 as an adherent monolayer and was passaged upon reaching confluence by standard cell culture techniques. MRC-5 cells were seeded at 2 × 10^4 cells per well in 96-well plates to ensure full confluence (quiescence). Cells were treated for 24 h after seeding with 0.1 to 1000 μM of compounds. After 72 h of drug incubation, the treated media was replaced with fresh media containing 10% Alamar Blue and the cells were incubated for another 6 h. The metabolic activity was detected by spectrophotometric analysis by assessing the absorbance of Alamar blue as previously described by Pasquier et al. Cell proliferation was determined and expressed as a percentage of untreated control cells. The determination of IC50 values was performed using GraphPad Prism 6 (San Diego, CA, USA). Each experiment was performed in triplicate and was repeated in three independent experiments.

[4] = Staphylococcus aureus, broth microdilution in MHB, 18–24 h
[5] = Escherichia coli, broth microdilution in MHB, 18–24 h
[6] = Staphylococcus aureus, Table 2, lysine derivative versus parent, read-out: MIC S. aureus
[7] = Escherichia coli, Table 2, lysine derivative versus parent, read-out: MIC E. coli
[8] = broth microdilution in MHB, 18–24 h

Compound	MIC90 [1, 4] [µM]	MIC90 [2, 5] [µM]	IC50 [3] [µM]	also measured
NCCNC(=O)[C@H](Cc1c[nH]c2ccccc12)NC(=O)c1cc(Br)ccc1N [Compound 17, (S)-2-amino-N-(1-((2-aminoethyl)amino)-3-(1H-indol-3-yl)-1-oxopropan-2-yl)-5-bromobenzamide]	> 125	> 125	–	–
CC(C)(C)c1ccc(-c2ccc(N)c(C(=O)N[C@@H](Cc3c[nH]c4ccccc34)C(=O)NCCN)c2)cc1 [Compound 16a, (S)-4-amino-N-(1-((2-aminoethyl)amino)-3-(1H-indol-3-yl)-1-oxopropan-2-yl)-4′-(tert-butyl)-[1,1′-biphenyl]-3-carboxamide]	7.8 (≈ 3.88 µg/mL)	> 125	34.1	–
COc1ccc2ccccc2c1C(=O)Nc1ccc(Br)cc1C(=O)N[C@@H](Cc1c[nH]c2ccccc12)C(=O)NCCCN [Compound 13c, (S)-N-(2-((1-((3-aminopropyl)amino)-3-(1H-indol-3-yl)-1-oxopropan-2-yl)carbamoyl)-4-bromophenyl)-2-methoxy-1-naphthamide]	15.6 (≈ 10 µg/mL)	62.5 (≈ 40.2 µg/mL)	20.5	–
NCCNC(=O)[C@H](Cc1c[nH]c2ccccc12)NC(=O)c1cc(Br)ccc1NC(=O)c1cccc(-c2ccccc2)c1 [Compound 12j, (S)-N-(2-((1-((2-aminoethyl)amino)-3-(1H-indol-3-yl)-1-oxopropan-2-yl)carbamoyl)-4-bromophenyl)-[1,1′-biphenyl]-3-carboxamide]	3.9 (≈ 2.44 µg/mL)	> 125	13.5	MIC [1, 6]: 3.9 µM (≈ 2.44 µg/mL); MIC [2, 7]: > 125 µM; MIC90 [2, 8]: >125 µM
NCCNC(=O)[C@H](Cc1c[nH]c2ccccc12)NC(=O)c1cc(Br)ccc1NC(=O)c1cccs1 [Compound 12g, (S)-N-(2-((1-((2-aminoethyl)amino)-3-(1H-indol-3-yl)-1-oxopropan-2-yl)carbamoyl)-4-bromophenyl)thiophene-2-carboxamide]	125 (≈ 69.3 µg/mL)	> 125	–	–
NCCNC(=O)[C@H](Cc1c[nH]c2ccccc12)NC(=O)c1cc(-c2ccc(F)cc2)ccc1N [Compound 16c, (S)-4-amino-N-(1-((2-aminoethyl)amino)-3-(1H-indol-3-yl)-1-oxopropan-2-yl)-4′-fluoro-[1,1′-biphenyl]-3-carboxamide]	31.2 (≈ 14.3 µg/mL)	> 125	34	–
NCCCNC(=O)[C@H](Cc1c[nH]c2ccccc12)NC(=O)c1cc(Br)ccc1NC(=O)c1ccc2ccccc2c1 [Compound 13a, (S)-N-(2-((1-((3-aminopropyl)amino)-3-(1H-indol-3-yl)-1-oxopropan-2-yl)carbamoyl)-4-bromophenyl)-2-naphthamide]	15.6 (≈ 9.56 µg/mL)	> 125	–	–
NCCNC(=O)[C@H](Cc1c[nH]c2ccccc12)NC(=O)c1cc(Br)ccc1NC(=O)c1ccc2ccccc2n1 [Compound 12e, (S)-N-(2-((1-((2-aminoethyl)amino)-3-(1H-indol-3-yl)-1-oxopropan-2-yl)carbamoyl)-4-bromophenyl)quinoline-2-carboxamide]	15.6 (≈ 9.35 µg/mL)	> 125	–	–
COc1ccc2ccccc2c1C(=O)Nc1ccc(Br)cc1C(=O)N[C@@H](Cc1c[nH]c2ccccc12)C(=O)NCCN [Compound 12c, (S)-N-(2-((1-((2-aminoethyl)amino)-3-(1H-indol-3-yl)-1-oxopropan-2-yl)carbamoyl)-4-bromophenyl)-2-methoxy-1-naphthamide]	15.6 (≈ 9.81 µg/mL)	> 125	–	–
NCCNC(=O)[C@H](Cc1c[nH]c2ccccc12)NC(=O)c1cc(Br)ccc1NC(=O)c1ccc(-c2ccccc2)cc1 [Compound 12k, (S)-N-(2-((1-((2-aminoethyl)amino)-3-(1H-indol-3-yl)-1-oxopropan-2-yl)carbamoyl)-4-bromophenyl)-[1,1′-biphenyl]-4-carboxamide]	7.8 (≈ 4.87 µg/mL)	> 125	12.7	MIC [1, 6]: 7.8 µM (≈ 4.87 µg/mL); MIC [2, 7]: > 125 µM
Colistin [reference compound]	–	–	–	MIC90 [1, 8]: 125 µM; MIC90 [2, 8]: 1 µM
COc1cc2ccccc2cc1C(=O)Nc1ccc(Br)cc1C(=O)N[C@@H](Cc1c[nH]c2ccccc12)C(=O)NCCN [Compound 12d, (S)-N-(2-((1-((2-aminoethyl)amino)-3-(1H-indol-3-yl)-1-oxopropan-2-yl)carbamoyl)-4-bromophenyl)-3-methoxy-2-naphthamide]	7.8 (≈ 4.9 µg/mL)	> 125	18.7	–
NCCNC(=O)[C@H](Cc1c[nH]c2ccccc12)NC(=O)c1cc(Br)ccc1NC(=O)Cc1cccc2ccccc12 [Compound 12b, (S)-N-(1-((2-aminoethyl)amino)-3-(1H-indol-3-yl)-1-oxopropan-2-yl)-5-bromo-2-(2-(naphthalen-1-yl)acetamido)benzamide]	62.5 (≈ 38.3 µg/mL)	> 125	–	MIC ([1]; Staphylococcus aureus, broth microdilution in MHB, 18–24 h, read-out: MIC90 S. aureus): 15.6 µM (≈ 9.56 µg/mL)
NCCNC(=O)[C@H](Cc1c[nH]c2ccccc12)NC(=O)c1cc(Br)ccc1NC(=O)c1cc2ccccc2[nH]1 [Compound 12f, (S)-N-(2-((1-((2-aminoethyl)amino)-3-(1H-indol-3-yl)-1-oxopropan-2-yl)carbamoyl)-4-bromophenyl)-1H-indole-2-carboxamide]	125 (≈ 73.4 µg/mL)	> 125	–	–
NCCCNC(=O)[C@H](Cc1c[nH]c2ccccc12)NC(=O)c1cc(Br)ccc1NC(=O)c1ccc2ccccc2n1 [Compound 13e, (S)-N-(2-((1-((3-aminopropyl)amino)-3-(1H-indol-3-yl)-1-oxopropan-2-yl)carbamoyl)-4-bromophenyl)quinoline-2-carboxamide]	> 125	> 125	–	–
NCCCC[C@H](N)C(=O)NCCNC(=O)[C@H](Cc1c[nH]c2ccccc12)NC(=O)c1cc(Br)ccc1NC(=O)c1ccc(-c2ccccc2)cc1 [Compound 19c, N-(4-bromo-2-(((S)-1-((2-((S)-2,6-diaminohexanamido)ethyl)amino)-3-(1H-indol-3-yl)-1-oxopropan-2-yl)carbamoyl)phenyl)-[1,1′-biphenyl]-4-carboxamide]	15.6 (≈ 11.7 µg/mL)	62.5 (≈ 47 µg/mL)	150	MIC [1, 6]: 15.6 µM (≈ 11.7 µg/mL); MIC [2, 7]: 62.5 µM (≈ 47 µg/mL); MIC ([2]; Escherichia coli, broth microdilution in MHB, 18–24 h, read-out: MIC90 E. coli): 15.6 µM (≈ 11.7 µg/mL); improvement in antibacterial activity against E. coli compared to the parent compound ([2]; versus parent 12a, 12j): > 16 fold; toxicity to mammalian cells (in words) ([3]; at 31.2 µM): non-toxic
NCCNC(=O)[C@H](Cc1c[nH]c2ccccc12)NC(=O)c1cc(-c2ccc(C(F)(F)F)cc2)ccc1N [Compound 16d, (S)-4-amino-N-(1-((2-aminoethyl)amino)-3-(1H-indol-3-yl)-1-oxopropan-2-yl)-4′-(trifluoromethyl)-[1,1′-biphenyl]-3-carboxamide]	15.6 (≈ 7.95 µg/mL)	> 125	–	–
NCCCNC(=O)[C@H](Cc1c[nH]c2ccccc12)NC(=O)c1cc(Br)ccc1NC(=O)Cc1cccc2ccccc12 [Compound 13b, (S)-N-(1-((3-aminopropyl)amino)-3-(1H-indol-3-yl)-1-oxopropan-2-yl)-5-bromo-2-(2-(naphthalen-1-yl)acetamido)benzamide]	62.5 (≈ 39.2 µg/mL)	> 125	–	–
NCCNC(=O)[C@H](Cc1c[nH]c2ccccc12)NC(=O)c1cc(Br)ccc1NC(=O)c1ccccc1-c1ccccc1 [Compound 12i, (S)-N-(2-((1-((2-aminoethyl)amino)-3-(1H-indol-3-yl)-1-oxopropan-2-yl)carbamoyl)-4-bromophenyl)-[1,1′-biphenyl]-2-carboxamide]	15.6 (≈ 9.74 µg/mL)	> 125	22.9	–
NCCNC(=O)[C@H](Cc1c[nH]c2ccccc12)NC(=O)c1cc(Br)ccc1NC(=O)c1ccsc1 [Compound 12h, (S)-N-(2-((1-((2-aminoethyl)amino)-3-(1H-indol-3-yl)-1-oxopropan-2-yl)carbamoyl)-4-bromophenyl)thiophene-3-carboxamide]	125 (≈ 69.3 µg/mL)	> 125	–	–
